Results published in paper PMC9934367, “Functional impact of subunit composition and compensation on Drosophila melanogaster nicotinic receptors–targets of neonicotinoids” (PLOS Genetics, 2023).

Tests used:
D. melanogaster nAChRs = assay: Comparison of agonist activity between nAChRs expressed in X. laevis oocytes (one-way ANOVA, Kruskal-Wallis); type: cell-based
Procedure: (§1) We minimised the use of X. laevis according to the UK Animals (Scientific Procedures) Act, 1986. […] Oocytes were defolliculated after collagenase treatment in Ca^2+-free standard oocyte saline (Ca^2+-free SOS). cRNAs of the nAChR subunits and co-factors mixed at a concentration of 0.1 mg/mL was injected into oocytes at a volume of 50 nL. Then the oocytes were incubated in the incubation medium (SOS supplemented with sodium pyruvate (Nacalai Tesque, #13058–12), penicillin-streptomycin (MilliporeSigma, #P4333), gentamycin (Nacalai Tesque, #16672–04), and 4% horse serum (Thermo Fisher Scientific, #26050–070) for 3−4 days prior to electrophysiology.
(§2) Each defolliculated X. laevis oocyte was secured in a Perspex recording chamber and perfused with the standard oocyte saline (SOS) containing 0.5 μM atropine (SOSA) at a flow rate of 7−10 mL/min [48]. Two glass electrodes filled with 2 M KCl were impaled into each oocyte and the membrane potential was clamped at -100 mV. […] The peak amplitude of the response was measured and analysed by pCLAMP (Molecular Devices, USA).
(§3) Y=Imax/1+10^(logEC50‐X)nH
(§4) Where Y is the normalised response, X is log[ligand (M)], EC50 is the half maximal concentration (M), Imax is the maximum normalised response and nH is the Hill coefficient.
Prism software was employed for the statistical analyses. […] One-way ANOVA was used to analyse the differences of the ligand agonist activity in terms of pEC50 on the various nAChRs expressed in X. laevis as well as data obtained with D. melanogaster larvae and adults.

D. melanogaster = conditions: Dα2 knockout; cited from earlier work
Dα1/chicken β2 nAChR = conditions: cited from earlier work
Dα3/Dβ1/Dβ2 nAChR = target: T1, Dα3/Dβ1/Dβ2 nAChR (Drosophila melanogaster, UniProt P04755+P25162+Q9W3G6); assay: Voltage-clamp electrophysiology, nAChR expressed in X. laevis oocytes; type: cell-based, D. melanogaster
T1 construct: Dβ1 (NP_523927); Dβ2 (NP_524483); expressed in transfected cells; host or cells: Xenopus laevis oocytes (cRNA injection)
Procedure: (§5) cDNAs of the nAChR subunits and co-factors were cloned into pcDNA3.1 (+) vector (Thermo Fisher Scientific). The accession numbers of the nAChR subunits and cofactors are as follows: Dα1 (NP_524481), Dα2 (NP_524482), Dα3 (NP_525079), Dα4 (CAB77445), Dβ1 (NP_523927), Dβ2 (NP_524483), Dβ3 (NP_525098), DmRIC-3 (CAP16647), DmUNC-50 (NP_649813), and DmTMX3 (NP_648847). cRNAs were prepared using the mMESSAGE mMACHINE T7 ULTRA Transcription Kit (Thermo Fisher Scientific, #AM1345) according to the manual with the cDNA template which was cut with appropriate restriction enzymes at the 3’ end of the cDNA.
as §1, §2, §3, §4

Dα2/Dα3/Dβ1 nAChR = target: T2, Dα2/Dα3/Dβ1 nAChR (Drosophila melanogaster, UniProt P04755+P17644+Q9W3G6); assay: as above; type: cell-based, D. melanogaster
T2 construct: Dα2 (NP_524482); Dβ1 (NP_523927); expressed in transfected cells; host or cells: Xenopus laevis oocytes (cRNA injection)
Procedure: as §5, §1, §2, §3, §4

Dα3/Dβ1 nAChR = target: T3, Dα3/Dβ1 nAChR (Drosophila melanogaster, UniProt P04755+Q9W3G6); assay: cell-based; type: cell-based, D. melanogaster
T3 construct: Dβ1 (NP_523927); expressed in transfected cells; host or cells: Xenopus laevis oocytes (cRNA injection)
Procedure: as §5, §1, §2, §3, §4

Dα2/chicken β2 nAChR = conditions: cited from earlier work

N#C/N=C1\SCCN1Cc1ccc(Cl)nc1 [Thiacloprd]
Difference of Imax values, nAChRs compared (D. melanogaster nAChRs; Dα1/Dα2/Dα3/Dβ1/Dβ2 vs. Dα1/Dα2/Dα4/Dβ1/Dβ2): -0.007 | Difference of Imax values, nAChRs compared (D. melanogaster nAChRs; Dα1/Dα2/Dα3/Dβ1/Dβ2 vs. Dα1/Dα2/Dβ1/Dβ2/Dβ3): 0.036 | Difference of Imax values, nAChRs compared (D. melanogaster nAChRs; Dα1/Dα2/Dα3/Dβ1/Dβ2 vs. Dα1/Dα3/Dα4/Dβ1/Dβ2): 0.033 | Difference of Imax values, nAChRs compared (D. melanogaster nAChRs; Dα1/Dα2/Dα3/Dβ1/Dβ2 vs. Dα1/Dα3/Dβ1/Dβ2/Dβ3): -0.030 | Difference of Imax values, nAChRs compared (D. melanogaster nAChRs; Dα1/Dα2/Dα3/Dβ1/Dβ2 vs. Dα2/Dα3/Dα4/Dβ1/Dβ2): 0.041 | Difference of Imax values, nAChRs compared (D. melanogaster nAChRs; Dα1/Dα2/Dα3/Dβ1/Dβ2 vs. Dα2/Dα3/Dβ1/Dβ2/Dβ3): 0.049

CCN(Cc1ccc(Cl)nc1)/C(=C/[N+](=O)[O-])NC [nitenpyram]
sensitivity in larvae, effect of knockout (D. melanogaster): enhanced

α-Bungarotoxin [α-BTX]
sensitivity to α-BTX (Dα1/chicken β2 nAChR): sensitive | blocking effect on ACh-induced response (Dα3/Dβ1/Dβ2 nAChR): minimal blocking effect | blocking effect on ACh-induced response (Dα2/Dα3/Dβ1 nAChR): minimal blocking effect | blocking effect on ACh-induced response (Dα3/Dβ1 nAChR): minimal blocking effect | sensitivity to α-BTX (Dα2/chicken β2 nAChR): resistant
